Consider one compound from patent US4473578A, “β-Lactam antibiotics and their use” (Beecham Group Limited, priority 1979, dated 1984).

Assay in all cases: Antibacterial effectiveness in agar
What all share (format): cell-based

Assay [1] deals with Staphylococcus aureus Smith. The note with it: in agar; Staphylococcus aureus Smith; read-out: M.I.C. An excerpt:
(§1) b. Antibacterial effectiveness of the compound of […]

The subject of another assay is Proteus mirabilis T318. The conditions noted are these: in agar; Proteus mirabilis T318; read-out: M.I.C.
Text: as §1

Assay [2] deals with Staphylococcus aureus ME9+. The note with it: in agar; Staphylococcus aureus ME9+; read-out: M.I.C.
Text: as §1

A further assay concerns Serratia marcescens SM27. The note with it: in agar; Serratia marcescens SM27; read-out: M.I.C.
Text: as §1

Assay [3] has as its system Staphylococcus aureus ATCC 25923. The note with it: ATCC25923; in agar; Staphylococcus aureus ATCC 25923; read-out: M.I.C.
Text: as §1

In the next assay the test system is Escherichia coli JT414C+. The conditions noted are these: in agar; Escherichia coli JT414C+; read-out: M.I.C.
Text: as §1

Another assay has as its system Bacteroides fragilis BC4. The conditions noted are these: in agar; Bacteroides fragilis BC4; read-out: M.I.C.
Text: as §1

Assay [4] concerns Klebsiella aerogenes T219. The conditions noted are these: in agar; Klebsiella aerogenes T219; read-out: M.I.C.
Text: as §1

In assay [5] the test system is Serratia marcescens Wo146. The note with it: in agar; Serratia marcescens Wo146; read-out: M.I.C.
Text: as §1

The test system of the next assay is Proteus mirabilis 889. The note with it: in agar; Proteus mirabilis 889; read-out: M.I.C.
Text: as §1

Assay [6] relates to Enterbacter aerogenes T660. The conditions noted are these: in agar; Enterbacter aerogenes T660; read-out: M.I.C.
Text: as §1

≈ marks a conversion by molar mass, not a printed value.

Take `CC(=O)N/C=C/SC1=C(C(=O)O)N2C(=O)[C@@H]([C@H](C)OS(=O)(=O)O)[C@H]2C1` [MM 13902, reference compound]: the MIC is 1.6 µg/mL (≈ 4.08 µM) in [1]; not above 0.1 µg/mL in the assay with Proteus mirabilis T318; 3.1 µg/mL (≈ 7.9 µM) in [2]; 1.6 µg/mL (≈ 4.08 µM) in the assay with Serratia marcescens SM27; 1.6 µg/mL (≈ 4.08 µM) in assay [3]; 0.4 µg/mL (≈ 1.02 µM) in the assay with Escherichia coli JT414C+. In addition, the MIC was 1.6 µg/mL (≈ 4.08 µM) in the assay on Bacteroides fragilis BC4; not above 0.1 µg/mL in [4]; 3.1 µg/mL (≈ 7.9 µM) in [5]; 0.2 µg/mL (≈ 0.51 µM) in the assay on Proteus mirabilis 889; 0.4 µg/mL (≈ 1.02 µM) in assay [6].
